Experimental data published in patent US10285983B2, “3-(1H-pyrrolo[2,3-B]pyridin-2-yl)-1H-pyrazolo[3,4-B] pyridines and therapeutic uses thereof” (Samumed, LLC, priority 2015, dated 2019).

Tests used:
Assay type in all cases: cell-based
[1] = system: Wnt activity (Sp5-Luc reporter, SW480 colon carcinoma cells); assay: Wnt activity screening assay, Sp5-Luc reporter gene in SW480 cells; conditions: Homo sapiens; for inhibition at 10 µM: given for EC50 >10 μM, read-out: percent inhibition at 10 μM; for EC50: overnight incubation
Outline: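 SW480 colon carcinoma cells stably expressing firefly luciferase under a human Sp5 promoter (eight TCF/LEF sites), plated in 1% FBS medium. 10-point 1:3 dilutions from 10 μM, 0.1% DMSO final, overnight at 37 °C; luminescence normalized to DMSO, four-parameter fit for EC50, % inhibition at 10 μM if EC50 >10 μM.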

SW480 colon cancer cells = assay: Cell viability assay (CellTiter-Blue); conditions: Homo sapiens, 96 h, four days; for inhibition at 10 µM: given for EC50 >10 μM, read-out: percent inhibition at 10 μM
Outline: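 Four-day viability readout in SW480 cells: compound at 0.0045–10 μM (1:3 series), DMSO controls in eight replicates, CellTiter-Blue fluorescence after ~3 h. Values are regression-derived EC50s, or percent inhibition at 10 μM when EC50 exceeds 10 μM.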

[2] = system: IL-6 (THP-1 human monocyte cell line); assay: IL-6 inhibition in LPS-stimulated THP-1 cells (HTRF); conditions: LPS 500 ng/mL; for EC50: 22 hours, IL6 HTRF; for inhibition at 10 µM: given for EC50 >10 μM, read-out: percent inhibition at 10 μM
Outline: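 THP-1 cells, serum-reduced to 1% FBS for 24 h, preincubated 2 h at 37° C with compound (10-point, 1:3 series, 0.1% DMSO), then stimulated with 500 ng/mL LPS for 22 h. IL-6 quantified by HTRF 665/620 nm ratio, normalized to DMSO; EC50 by four-parameter fit, else percent inhibition at 10 μM.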

Row | EC50 [1] [µM] | EC50 (SW480 colon cancer cells) [µM] | EC50 [2] [µM] | Structure (SMILES) | inhibition at 10 µM [1] [%] | inhibition at 10 µM (SW480 colon cancer cells) [%] | inhibition at 10 µM [2] [%]
1 | > 10 | > 10 | > 10 | CN(C)Cc1cncc(-c2cnc3[nH]nc(-c4cc5c(-c6cccnc6)ccnc5[nH]4)c3c2)c1 [Compound 97, N,N-Dimethyl-1-(5-(3-(4-(pyridin-3-yl)-1H-pyrrolo[2,3-b]pyridin-2-yl)-1H-pyrazolo[3,4-b]pyridin-5-yl)pyridin-3-yl)methanamine] | 0 | 19.6 | 38.5
2 | > 10 | > 10 | > 10 | c1cncc(-c2ccnc3[nH]c(-c4n[nH]c5ncc(-c6cncc(CN7CCCCC7)c6)cc45)cc23)c1 [Compound 99, 5-(5-(Piperidin-1-ylmethyl)pyridin-3-yl)-3-(4-(pyridin-3-yl)-1H-pyrrolo[2,3-b]pyridin-2-yl)-1H-pyrazolo[3,4-b]pyridine] | 26 | 9.6 | 37
3 | > 10 | > 10 | > 10 | O=C(Nc1cncc(-c2cnc3[nH]nc(-c4cc5c(-c6cccnc6)ccnc5[nH]4)c3c2)c1)C1CC1 [Compound 104, N-(5-(3-(4-(Pyridin-3-yl)-1H-pyrrolo[2,3-b]pyridin-2-yl)-1H-pyrazolo[3,4-b]pyridin-5-yl)pyridin-3-yl)cyclopropanecarboxamide] | 0 | 10.4 | 35.8
4 | > 10 | > 10 | > 10 | Nc1cncc(-c2cnc3[nH]nc(-c4cc5c(-c6ccncc6)ccnc5[nH]4)c3c2)c1 [Compound 115, 5-(3-(4-(Pyridin-4-yl)-1H-pyrrolo[2,3-b]pyridin-2-yl)-1H-pyrazolo[3,4-b]pyridin-5-yl)pyridin-3-amine] | 5.6 | 0 | 40.6
5 | > 10 | > 10 | > 10 | Cc1ccncc1-c1cnc2[nH]nc(-c3cc4c(-c5ccncc5)ccnc4[nH]3)c2c1 [Compound 117, 5-(4-Methylpyridin-3-yl)-3-(4-(pyridin-4-yl)-1H-pyrrolo[2,3-b]pyridin-2-yl)-1H-pyrazolo[3,4-b]pyridine] | 13 | 10.1 | 17.1
6 | > 10 | > 10 | > 10 | O=C(Nc1cncc(-c2cnc3[nH]nc(-c4cc5c(-c6ccncc6)ccnc5[nH]4)c3c2)c1)c1ccccc1 [Compound 123, N-(5-(3-(4-(Pyridin-4-yl)-1H-pyrrolo[2,3-b]pyridin-2-yl)-1H-pyrazolo[3,4-b]pyridin-5-yl)pyridin-3-yl)benzamide] | 5.2 | 12 | 15.1
7 | > 10 | > 10 | > 10 | CC(C)(C)CC(=O)Nc1cncc(-c2cnc3[nH]nc(-c4cc5c(-c6ccncc6)ccnc5[nH]4)c3c2)c1 [Compound 128, 3,3-Dimethyl-N-(5-(3-(4-(pyridin-4-yl)-1H-pyrrolo[2,3-b]pyridin-2-yl)-1H-pyrazolo[3,4-b]pyridin-5-yl)pyridin-3-yl)butanamide] | 0 | 10.7 | 45.8
8 | > 10 | > 10 | 0.621 | CCCC(=O)Nc1cncc(-c2cnc3[nH]nc(-c4cc5c(-c6ccncc6)ccnc5[nH]4)c3c2)c1 [Compound 129, N-(5-(3-(4-(Pyridin-4-yl)-1H-pyrrolo[2,3-b]pyridin-2-yl)-1H-pyrazolo[3,4-b]pyridin-5-yl)pyridin-3-yl)butyramide] | 35 | 3.8 | –
9 | > 10 | > 10 | > 10 | c1cc(-c2cnc3[nH]nc(-c4cc5c(-c6ccncc6)ccnc5[nH]4)c3c2)ccn1 [Compound 130, 5-(Pyridin-4-yl)-3-(4-(pyridin-4-yl)-1H-pyrrolo[2,3-b]pyridin-2-yl)-1H-pyrazolo[3,4-b]pyridine] | 6.3 | 5.7 | 45.9
10 | > 10 | > 10 | > 10 | O=C(Nc1cncc(-c2cnc3[nH]nc(-c4cc5c(-c6ccncc6)ccnc5[nH]4)c3c2)c1)C1CCCCC1 [Compound 135, N-(5-(3-(4-(Pyridin-4-yl)-1H-pyrrolo[2,3-b]pyridin-2-yl)-1H-pyrazolo[3,4-b]pyridin-5-yl)pyridin-3-yl)cyclohexanecarboxamide] | 16.4 | 13.9 | 37.7
11 | > 10 | > 10 | > 10 | c1ccc(CNCc2cncc(-c3cnc4[nH]nc(-c5cc6c(-c7ccncc7)ccnc6[nH]5)c4c3)c2)cc1 [Compound 136, N-Benzyl-1-(5-(3-(4-(pyridin-4-yl)-1H-pyrrolo[2,3-b]pyridin-2-yl)-1H-pyrazolo[3,4-b]pyridin-5-yl)pyridin-3-yl)methanamine] | 0 | 14.9 | 23.5
12 | > 10 | > 10 | > 10 | c1ccc(-c2cnc3[nH]nc(-c4cc5c(-c6ccncc6)ccnc5[nH]4)c3c2)nc1 [Compound 140, 5-(Pyridin-2-yl)-3-(4-(pyridin-4-yl)-1H-pyrrolo[2,3-b]pyridin-2-yl)-1H-pyrazolo[3,4-b]pyridine] | 12.3 | 20.2 | 24.5
13 | > 10 | > 10 | 1.2 | CC(C)(C)C(=O)Nc1cncc(-c2cnc3[nH]nc(-c4cc5c(N6CCCCC6)ccnc5[nH]4)c3c2)c1 [Compound 176, N-(5-(3-(4-(Piperidin-1-yl)-1H-pyrrolo[2,3-b]pyridin-2-yl)-1H-pyrazolo[3,4-b]pyridin-5-yl)pyridin-3-yl)pivalamide] | 5 | 2.9 | –
14 | > 10 | > 10 | 0.007 | CN(C)Cc1cncc(-c2cnc3[nH]nc(-c4cc5c(N6CCCCC6)ccnc5[nH]4)c3c2)c1 [Compound 181, N,N-Dimethyl-1-(5-(3-(4-(piperidin-1-yl)-1H-pyrrolo[2,3-b]pyridin-2-yl)-1H-pyrazolo[3,4-b]pyridin-5-yl)pyridin-3-yl)methanamine] | 38.8 | 40.9 | –
15 | > 10 | > 10 | 0.463 | c1cc(N2CCCCC2)c2cc(-c3n[nH]c4ncc(-c5cncc(CN6CCCC6)c5)cc34)[nH]c2n1 [Compound 182, 3-(4-(Piperidin-1-yl)-1H-pyrrolo[2,3-b]pyridin-2-yl)-5-(5-(pyrrolidin-1-ylmethyl)pyridin-3-yl)-1H-pyrazolo[3,4-b]pyridine] | 7.1 | 26 | –
16 | > 10 | > 10 | > 10 | CCCC(=O)Nc1cncc(-c2cnc3[nH]nc(-c4cc5c(N6CCCCC6)ccnc5[nH]4)c3c2)c1 [Compound 185, N-(5-(3-(4-(Piperidin-1-yl)-1H-pyrrolo[2,3-b]pyridin-2-yl)-1H-pyrazolo[3,4-b]pyridin-5-yl)pyridin-3-yl)butyramide] | 10.9 | 4.9 | 41.2
17 | > 10 | > 10 | > 10 | c1ncc(-c2cnc3[nH]nc(-c4cc5c(N6CCCCC6)ccnc5[nH]4)c3c2)cn1 [Compound 195, 3-(4-(Piperidin-1-yl)-1H-pyrrolo[2,3-b]pyridin-2-yl)-5-(pyrimidin-5-yl)-1H-pyrazolo[3,4-b]pyridine] | 6.9 | 13.9 | 49.8
18 | > 10 | > 10 | 0.496 | CN1CCN(c2ccnc3[nH]c(-c4n[nH]c5ncc(-c6cncc(NC(=O)C7CCCCC7)c6)cc45)cc23)CC1 [Compound 247, N-(5-(3-(4-(4-Methylpiperazin-1-yl)-1H-pyrrolo[2,3-b]pyridin-2-yl)-1H-pyrazolo[3,4-b]pyridin-5-yl)pyridin-3-yl)cyclohexanecarboxamide] | 6.4 | 11.7 | –

Row | Structure (SMILES) | EC50 [1] [µM] | EC50 (SW480 colon cancer cells) [µM] | EC50 [2] [µM] | inhibition at 10 µM [1] [%] | inhibition at 10 µM (SW480 colon cancer cells) [%] | inhibition at 10 µM [2] [%]
19 | CCC(=O)Nc1cncc(-c2cnc3[nH]nc(-c4cc5c(N6CCCCC6)ccnc5[nH]4)c3c2)c1 [Compound 169, N-(5-(3-(4-(Piperidin-1-yl)-1H-pyrrolo[2,3-b]pyridin-2-yl)-1H-pyrazolo[3,4-b]pyridin-5-yl)pyridin-3-yl)propionamide] | 0.861 | > 10 | 4.81 | – | 36.1 | –
20 | c1cncc(-c2cnc3[nH]nc(-c4cc5cccnc5[nH]4)c3c2)c1 [Compound 256, 5-(Pyridin-3-yl)-3-(1H-pyrrolo[2,3-b]pyridin-2-yl)-1H-pyrazolo[3,4-b]pyridine] | 1.06 | > 10 | 0.121 | – | 5.8 | –
